Experimental data taken from BindingDB's records for patent US11918568 (Sanford Burnham Prebys Medical Discovery Institute, 2024).

Target: Nicotinamide phosphoribosyltransferase (Homo sapiens, UniProt P43490)
Test: NAMPT Enzyme Activating Effect (In Vitro Cell-Free Enzyme Assay

Chain of Nicotinamide phosphoribosyltransferase (P43490 whole entry): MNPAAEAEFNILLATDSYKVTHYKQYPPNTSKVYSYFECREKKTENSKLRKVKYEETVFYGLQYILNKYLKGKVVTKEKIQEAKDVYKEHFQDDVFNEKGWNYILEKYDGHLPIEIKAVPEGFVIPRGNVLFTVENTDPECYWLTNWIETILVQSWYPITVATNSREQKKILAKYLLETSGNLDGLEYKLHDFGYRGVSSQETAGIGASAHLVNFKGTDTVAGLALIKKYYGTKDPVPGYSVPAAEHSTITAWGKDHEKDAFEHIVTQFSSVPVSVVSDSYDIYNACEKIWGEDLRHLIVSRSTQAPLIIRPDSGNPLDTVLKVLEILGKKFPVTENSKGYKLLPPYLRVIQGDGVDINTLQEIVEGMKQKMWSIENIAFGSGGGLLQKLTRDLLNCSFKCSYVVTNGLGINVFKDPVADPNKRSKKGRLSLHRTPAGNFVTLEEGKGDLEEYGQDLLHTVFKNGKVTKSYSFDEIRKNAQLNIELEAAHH

## O=C(NCc1ccncc1)Nc1ccn2nc(-c3ccccc3)nc2c1 [US11918568, Example 15]
  EC50: 230 nM
